Experimental findings from ChEMBL document CHEMBL5528003 (Eur J Med Chem, 2024) are described below.

In one data set the target is T1, Estrogen receptor (Homo sapiens, UniProt P03372).
T1 sequence (P03372 whole entry): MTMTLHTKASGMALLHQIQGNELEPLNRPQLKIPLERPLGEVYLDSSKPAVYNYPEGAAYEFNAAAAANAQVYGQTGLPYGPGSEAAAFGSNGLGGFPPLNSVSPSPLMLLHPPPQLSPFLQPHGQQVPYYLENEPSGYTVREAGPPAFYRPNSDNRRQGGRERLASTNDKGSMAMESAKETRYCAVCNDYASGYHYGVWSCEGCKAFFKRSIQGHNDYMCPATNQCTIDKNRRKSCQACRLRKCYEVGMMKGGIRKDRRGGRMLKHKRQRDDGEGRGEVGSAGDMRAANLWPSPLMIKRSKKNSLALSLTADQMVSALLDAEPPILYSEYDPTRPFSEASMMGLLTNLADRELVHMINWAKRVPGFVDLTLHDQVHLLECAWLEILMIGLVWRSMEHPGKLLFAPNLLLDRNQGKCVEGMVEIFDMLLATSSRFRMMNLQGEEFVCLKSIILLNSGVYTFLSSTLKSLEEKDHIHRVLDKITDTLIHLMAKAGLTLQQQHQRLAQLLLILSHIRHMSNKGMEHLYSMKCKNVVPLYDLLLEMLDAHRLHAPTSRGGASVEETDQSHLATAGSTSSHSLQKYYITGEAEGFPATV
Briefly: Induction of Estrogen receptor degradation in wildtype human MCF7 cells assessed as reduction in estrogen receptor level incubated for 24 hrs by Western blot analysis. It counts as cell-based.

The nature of data set [1]: Metabolic stability in human liver microsomes assessed as parent compound remaining incubated for 60 mins in presence of NADPH by LC-MS/MS analysis. It counts as ADME, Microsome. The following applies: read-out: Stability.
In a further data set the test system is MCF7. Briefly: Antiproliferative activity against wildtype human MCF7 cells assessed as inhibition of cell proliferation incubated for 6 days in presence of beta-estradiol by CellTiter-Glo assay. Format: functional, cell-based. Conditions: MCF7, 144 h.
Data set [2] in a line: Metabolic stability in rat liver microsomes assessed as parent compound remaining incubated for 60 mins in presence of NADPH by LC-MS/MS analysis. Format: ADME, Microsome. The following applies: read-out: Stability.

Take `C[C@@H]1Cc2c([nH]c3ccccc23)[C@@H](c2c(F)cc(NC3CN(CCCS(=O)(=O)CCCC(F)(F)C(F)(F)F)C3)cc2F)N1CC(F)(F)F`: the DC50 at Estrogen receptor turned out to be 10.6 nM. Moreover, the remaining at 1 h amounted to 71.2% in data set [1] and 99.1% in data set [2]. The half-inhibitory concentration (IC50) in the data set with MCF7 came to 9.7 nM.

Consider `C[C@@H]1Cc2c([nH]c3ccccc23)[C@@H](c2c(F)cc(NC3CN(CCC[S+]([O-])CCCC(F)(F)C(F)(F)F)C3)cc2F)N1CC(F)(F)CO` (stereo partly drawn), for which the half-maximal degradation concentration (DC50) on Estrogen receptor came to 1.2 nM. In addition, the remaining at 1 h came out at 60.1% in data set [1] and 79.3% in data set [2]. For the same molecule, the concentration for half-maximal inhibition (IC50) in the data set on MCF7 worked out at 0.9 nM.

Take `C[C@@H]1Cc2c([nH]c3ccccc23)[C@@H](c2c(F)cc(NC3CN(CC[S+]([O-])CCCC(F)(F)C(F)(F)F)C3)cc2F)N1CC(F)(F)CO` (stereo partly drawn): the values for the remaining at 1 h in data set [1] and in data set [2] were 29.1% and 78%, respectively.

As to `C[C@@H]1Cc2c([nH]c3ccccc23)[C@@H](c2c(F)cc(NC3CN(CCOCCCC(F)(F)C(F)(F)F)C3)cc2F)N1CC(F)(F)CO`, at Estrogen receptor, the DC50 was 3.8 nM.

Consider `C[C@@H]1Cc2c([nH]c3ccccc23)[C@@H](c2c(F)cc(OC3CN(CC[S+]([O-])CCCC(F)(F)C(F)(F)F)C3)cc2F)N1CC(F)(F)F` (stereo partly drawn), for which the remaining at 1 h in data set [1] worked out at 24.9%; in data set [2], 53.7%.
